Assay results reported in US9682995B2, “Amino-substituted isothiazoles” (BAYER PHARMA AKTIENGESELLSCHAFT, priority 2013, dated 2017).

Columns and labels:
Assay in all cases: Kinase Profiling (KINOMEscan)
Format in all cases: binding
[1] = target: 456 kinases (of these 395 non-mutant kinases) (Homo sapiens, UniProt Q8TDC3); details: BRSK1; 10 μM
[2] = target: 456 kinases (of these 395 non-mutant kinases) (Homo sapiens, UniProt Q9P286); details: PAK7; 10 μM
[3] = target: 456 kinases (of these 395 non-mutant kinases) (Homo sapiens, UniProt P42336); details: PIK3CA; 10 μM
[4] = target: 456 kinases (of these 395 non-mutant kinases) (Homo sapiens, UniProt Q9Y4K4); details: MAP4K5; 10 μM
[5] = target: 456 kinases (of these 395 non-mutant kinases) (Homo sapiens, UniProt Q15139); details: PRKD1; 10 μM
[6] = target: 456 kinases (of these 395 non-mutant kinases) (Homo sapiens, UniProt P07949, M918T); details: RET(M918T); 10 μM
456 kinases (of these 395 non-mutant kinases) (Homo sapiens, UniProt P07949, M918T), sequence (P07949 29-1114 M918T limits assumed): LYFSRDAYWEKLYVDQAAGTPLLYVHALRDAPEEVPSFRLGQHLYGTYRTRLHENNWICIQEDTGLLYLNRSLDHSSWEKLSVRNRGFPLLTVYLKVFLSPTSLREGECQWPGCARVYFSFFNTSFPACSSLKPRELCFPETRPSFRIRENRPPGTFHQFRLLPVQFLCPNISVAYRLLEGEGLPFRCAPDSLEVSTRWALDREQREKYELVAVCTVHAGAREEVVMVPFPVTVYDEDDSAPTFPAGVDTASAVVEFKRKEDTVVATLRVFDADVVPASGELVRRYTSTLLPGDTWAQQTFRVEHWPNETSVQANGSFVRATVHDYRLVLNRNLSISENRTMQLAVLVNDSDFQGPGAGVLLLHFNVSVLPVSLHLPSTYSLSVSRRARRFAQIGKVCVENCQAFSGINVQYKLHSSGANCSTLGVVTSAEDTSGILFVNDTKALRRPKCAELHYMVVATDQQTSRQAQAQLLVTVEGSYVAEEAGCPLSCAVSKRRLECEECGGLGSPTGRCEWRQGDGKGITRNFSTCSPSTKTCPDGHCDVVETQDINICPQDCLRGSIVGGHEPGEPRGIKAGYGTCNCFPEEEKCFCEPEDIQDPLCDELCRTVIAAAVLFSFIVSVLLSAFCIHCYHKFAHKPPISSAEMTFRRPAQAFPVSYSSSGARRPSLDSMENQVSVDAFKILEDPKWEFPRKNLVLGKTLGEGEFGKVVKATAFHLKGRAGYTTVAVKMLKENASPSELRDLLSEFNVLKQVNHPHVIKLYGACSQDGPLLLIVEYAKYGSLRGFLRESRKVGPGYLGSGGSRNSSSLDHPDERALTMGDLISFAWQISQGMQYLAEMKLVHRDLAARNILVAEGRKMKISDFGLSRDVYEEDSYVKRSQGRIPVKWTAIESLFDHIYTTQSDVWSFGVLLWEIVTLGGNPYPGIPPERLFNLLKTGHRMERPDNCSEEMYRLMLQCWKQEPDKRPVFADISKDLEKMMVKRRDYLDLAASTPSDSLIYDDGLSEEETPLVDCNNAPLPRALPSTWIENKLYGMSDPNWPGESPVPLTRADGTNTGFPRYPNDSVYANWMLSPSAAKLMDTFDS

[7] = target: 456 kinases (of these 395 non-mutant kinases) (Homo sapiens, UniProt P41743); details: PRKCI; 10 μM
456 kinases (of these 395 non-mutant kinases) (Homo sapiens, UniProt P41743), sequence (P41743 2-596 limits assumed, change not shown): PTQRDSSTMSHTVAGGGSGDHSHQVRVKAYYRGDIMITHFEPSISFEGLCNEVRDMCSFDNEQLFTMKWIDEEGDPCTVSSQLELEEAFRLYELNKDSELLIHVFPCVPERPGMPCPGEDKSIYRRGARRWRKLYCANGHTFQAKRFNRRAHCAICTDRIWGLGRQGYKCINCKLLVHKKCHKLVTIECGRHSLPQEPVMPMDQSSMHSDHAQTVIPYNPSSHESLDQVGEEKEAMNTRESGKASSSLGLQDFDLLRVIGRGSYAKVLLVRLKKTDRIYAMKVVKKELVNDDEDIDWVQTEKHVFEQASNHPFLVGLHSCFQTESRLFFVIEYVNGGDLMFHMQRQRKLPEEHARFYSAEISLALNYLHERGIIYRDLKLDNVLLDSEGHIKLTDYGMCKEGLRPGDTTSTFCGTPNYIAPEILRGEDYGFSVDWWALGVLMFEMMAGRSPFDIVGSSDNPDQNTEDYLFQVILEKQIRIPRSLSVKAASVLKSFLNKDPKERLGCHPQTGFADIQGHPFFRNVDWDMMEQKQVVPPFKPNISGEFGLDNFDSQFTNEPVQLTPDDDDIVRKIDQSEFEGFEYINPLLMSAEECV

[8] = target: 456 kinases (of these 395 non-mutant kinases) (Homo sapiens, UniProt P00533); details: EGFR; 10 μM
[9] = target: 456 kinases (of these 395 non-mutant kinases) (Homo sapiens, UniProt P49761); details: CLK3; 10 μM
[10] = target: 456 kinases (of these 395 non-mutant kinases) (Homo sapiens, UniProt Q08345); details: DDR1; 10 μM
[11] = target: 456 kinases (of these 395 non-mutant kinases) (Homo sapiens, UniProt P51957); details: NEK4; 10 μM
[12] = target: 456 kinases (of these 395 non-mutant kinases) (Homo sapiens, UniProt P53350); details: PLK1; 10 μM
456 kinases (of these 395 non-mutant kinases) (Homo sapiens, UniProt P53350), sequence (P53350 2-603 limits assumed, change not shown): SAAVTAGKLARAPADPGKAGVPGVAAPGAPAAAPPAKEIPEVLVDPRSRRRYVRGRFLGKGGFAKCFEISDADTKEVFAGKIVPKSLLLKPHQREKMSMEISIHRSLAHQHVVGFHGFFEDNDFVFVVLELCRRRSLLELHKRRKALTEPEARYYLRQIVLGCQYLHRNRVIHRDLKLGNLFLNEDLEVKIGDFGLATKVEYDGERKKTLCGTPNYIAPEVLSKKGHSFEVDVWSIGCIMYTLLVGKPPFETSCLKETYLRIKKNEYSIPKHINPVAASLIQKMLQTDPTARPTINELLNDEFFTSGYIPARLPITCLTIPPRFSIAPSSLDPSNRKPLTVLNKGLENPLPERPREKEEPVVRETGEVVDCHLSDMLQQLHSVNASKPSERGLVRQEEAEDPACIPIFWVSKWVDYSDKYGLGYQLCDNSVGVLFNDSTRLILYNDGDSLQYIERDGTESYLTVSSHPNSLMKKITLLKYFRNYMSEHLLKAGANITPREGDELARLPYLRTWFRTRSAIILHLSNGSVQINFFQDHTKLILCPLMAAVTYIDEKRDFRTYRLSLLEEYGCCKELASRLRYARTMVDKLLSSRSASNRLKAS

[13] = target: 456 kinases (of these 395 non-mutant kinases) (Homo sapiens, UniProt Q8IWQ3); details: BRSK2; 10 μM
[14] = target: 456 kinases (of these 395 non-mutant kinases) (Homo sapiens, UniProt P16591); details: FER; 10 μM
[15] = target: 456 kinases (of these 395 non-mutant kinases) (Homo sapiens, UniProt P00519, Y253F); details: ABL1(Y253F)-phosphorylated; 10 μM
[16] = target: 456 kinases (of these 395 non-mutant kinases) (Homo sapiens, UniProt P53778); details: p38-gamma; 10 μM
[17] = target: 456 kinases (of these 395 non-mutant kinases) (Homo sapiens, UniProt Q9H2X6); details: HIPK2; 10 μM
[18] = target: 456 kinases (of these 395 non-mutant kinases) (Homo sapiens, UniProt P42345); details: MTOR; 10 μM
[19] = target: 456 kinases (of these 395 non-mutant kinases) (Homo sapiens, UniProt O94768); details: DRAK2; 10 μM
[20] = target: 456 kinases (of these 395 non-mutant kinases) (Homo sapiens, UniProt Q9HBY8); details: SGK2; 10 μM
[21] = target: 456 kinases (of these 395 non-mutant kinases) (Homo sapiens, UniProt Q8N752); details: CSNK1A1L; 10 μM
[22] = target: 456 kinases (of these 395 non-mutant kinases) (Homo sapiens, UniProt Q16539); details: p38-alpha; 10 μM
456 kinases (of these 395 non-mutant kinases) (Homo sapiens, UniProt Q16539), sequence (Q16539 2-360 limits assumed, change not shown): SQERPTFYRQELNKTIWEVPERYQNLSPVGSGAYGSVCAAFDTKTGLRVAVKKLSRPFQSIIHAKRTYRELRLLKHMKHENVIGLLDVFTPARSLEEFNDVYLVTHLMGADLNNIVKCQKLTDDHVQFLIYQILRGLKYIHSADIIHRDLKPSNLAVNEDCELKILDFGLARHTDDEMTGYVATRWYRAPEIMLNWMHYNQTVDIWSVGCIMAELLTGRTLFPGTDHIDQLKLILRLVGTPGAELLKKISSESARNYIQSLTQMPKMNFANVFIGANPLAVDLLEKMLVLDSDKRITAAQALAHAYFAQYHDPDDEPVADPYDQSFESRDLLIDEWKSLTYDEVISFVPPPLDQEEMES

[23] = target: 456 kinases (of these 395 non-mutant kinases) (Homo sapiens, UniProt Q9BX84); details: TRPM6; 10 μM
[24] = target: 456 kinases (of these 395 non-mutant kinases) (Homo sapiens, UniProt P42685); details: FRK; 10 μM
[25] = target: 456 kinases (of these 395 non-mutant kinases) (Homo sapiens, UniProt O14976); details: GAK; 10 μM
456 kinases (of these 395 non-mutant kinases) (Homo sapiens, UniProt O14976), sequence (O14976 2-1311 limits assumed, change not shown): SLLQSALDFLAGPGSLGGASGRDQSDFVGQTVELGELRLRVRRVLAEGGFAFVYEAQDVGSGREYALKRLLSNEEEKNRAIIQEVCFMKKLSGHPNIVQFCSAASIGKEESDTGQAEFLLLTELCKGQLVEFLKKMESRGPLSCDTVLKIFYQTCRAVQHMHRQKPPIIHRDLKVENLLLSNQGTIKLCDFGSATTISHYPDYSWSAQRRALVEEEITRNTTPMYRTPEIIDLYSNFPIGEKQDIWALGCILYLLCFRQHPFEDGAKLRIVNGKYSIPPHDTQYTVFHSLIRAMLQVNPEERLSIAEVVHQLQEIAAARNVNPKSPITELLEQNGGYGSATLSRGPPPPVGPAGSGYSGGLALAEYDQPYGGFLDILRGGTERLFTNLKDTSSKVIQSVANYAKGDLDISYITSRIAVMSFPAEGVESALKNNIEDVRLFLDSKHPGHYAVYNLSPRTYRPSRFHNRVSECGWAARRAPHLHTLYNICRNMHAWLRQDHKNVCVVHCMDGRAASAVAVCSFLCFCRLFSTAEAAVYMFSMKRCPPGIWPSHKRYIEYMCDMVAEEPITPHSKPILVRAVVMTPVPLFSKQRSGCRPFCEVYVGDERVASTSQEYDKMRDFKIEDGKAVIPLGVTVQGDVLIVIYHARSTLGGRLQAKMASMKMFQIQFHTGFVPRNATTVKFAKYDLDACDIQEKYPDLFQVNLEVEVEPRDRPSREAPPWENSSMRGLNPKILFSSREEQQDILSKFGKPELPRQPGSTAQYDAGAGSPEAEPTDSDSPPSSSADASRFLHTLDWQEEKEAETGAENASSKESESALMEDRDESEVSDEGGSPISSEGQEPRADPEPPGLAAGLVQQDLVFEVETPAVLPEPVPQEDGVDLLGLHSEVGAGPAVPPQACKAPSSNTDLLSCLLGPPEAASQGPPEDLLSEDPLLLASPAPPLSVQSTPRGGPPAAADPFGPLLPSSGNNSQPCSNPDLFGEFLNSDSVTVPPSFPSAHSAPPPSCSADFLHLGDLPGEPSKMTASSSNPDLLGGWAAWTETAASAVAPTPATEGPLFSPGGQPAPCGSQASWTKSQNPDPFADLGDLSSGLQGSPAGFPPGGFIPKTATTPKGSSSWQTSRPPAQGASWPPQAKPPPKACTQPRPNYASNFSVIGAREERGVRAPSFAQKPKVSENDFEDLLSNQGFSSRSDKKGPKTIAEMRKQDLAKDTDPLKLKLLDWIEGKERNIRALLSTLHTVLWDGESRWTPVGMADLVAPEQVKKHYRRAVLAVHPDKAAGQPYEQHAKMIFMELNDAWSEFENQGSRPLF

[26] = target: 456 kinases (of these 395 non-mutant kinases) (Homo sapiens, UniProt P49841); details: GSK3B; 10 μM
[27] = target: 456 kinases (of these 395 non-mutant kinases) (Homo sapiens, UniProt O75460); details: ERN1; 10 μM
[28] = target: 456 kinases (of these 395 non-mutant kinases) (Homo sapiens, UniProt P42684); details: ABL2; 10 μM
[29] = target: 456 kinases (of these 395 non-mutant kinases) (Homo sapiens, UniProt O15075); details: DCAMKL1; 10 μM
[30] = target: 456 kinases (of these 395 non-mutant kinases) (Homo sapiens, UniProt Q07912); details: TNK2; 10 μM
[31] = target: 456 kinases (of these 395 non-mutant kinases) (Homo sapiens, UniProt P06213); details: INSR; 10 μM
[32] = target: 456 kinases (of these 395 non-mutant kinases) (Homo sapiens, UniProt P36888); details: 10 μM
456 kinases (of these 395 non-mutant kinases) (Homo sapiens, UniProt P36888), sequence (P36888 27-993 limits assumed, change not shown): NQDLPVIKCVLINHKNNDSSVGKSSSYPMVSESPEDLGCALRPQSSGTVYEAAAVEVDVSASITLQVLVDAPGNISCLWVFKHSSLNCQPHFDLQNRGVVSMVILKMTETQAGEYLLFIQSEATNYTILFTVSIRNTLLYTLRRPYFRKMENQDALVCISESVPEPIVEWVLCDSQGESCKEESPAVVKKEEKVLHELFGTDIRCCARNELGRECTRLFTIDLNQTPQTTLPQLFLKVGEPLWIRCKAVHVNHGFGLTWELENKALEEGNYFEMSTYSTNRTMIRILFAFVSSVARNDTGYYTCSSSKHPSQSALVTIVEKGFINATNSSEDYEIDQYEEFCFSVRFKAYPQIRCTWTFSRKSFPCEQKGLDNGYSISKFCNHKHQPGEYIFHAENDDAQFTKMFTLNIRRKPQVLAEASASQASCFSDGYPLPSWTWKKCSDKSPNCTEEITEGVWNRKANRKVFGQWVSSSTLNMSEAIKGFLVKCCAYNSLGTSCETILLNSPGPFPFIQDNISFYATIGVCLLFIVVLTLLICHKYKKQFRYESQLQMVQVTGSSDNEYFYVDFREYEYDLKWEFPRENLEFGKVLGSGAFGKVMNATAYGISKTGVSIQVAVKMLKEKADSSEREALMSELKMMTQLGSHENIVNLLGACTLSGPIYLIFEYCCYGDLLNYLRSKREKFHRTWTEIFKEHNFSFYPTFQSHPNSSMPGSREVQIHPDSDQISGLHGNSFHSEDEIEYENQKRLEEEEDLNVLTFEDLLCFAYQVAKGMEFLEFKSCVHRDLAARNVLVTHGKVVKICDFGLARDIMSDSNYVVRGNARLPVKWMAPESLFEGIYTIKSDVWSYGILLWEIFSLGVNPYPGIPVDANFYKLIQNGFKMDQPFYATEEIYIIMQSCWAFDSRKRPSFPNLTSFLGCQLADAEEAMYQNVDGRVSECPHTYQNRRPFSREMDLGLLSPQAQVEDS

SMILES: CCc1ccccc1NC(=O)c1c(C)nsc1Nc1cnc2cc(F)ccc2n1 [Example 20, N-(2-Ethylphenyl)-5-[(6-fluoroquinoxalin-2-yl)amino]-3-methyl-1,2-thiazole-4-carboxamide]
- % Ctrl @ 10 μM [1]: 90 % Ctrl
- % Ctrl @ 10 μM [2]: 94 % Ctrl
- % Ctrl @ 10 μM [3]: 100 % Ctrl
- % Ctrl @ 10 μM [4]: 89 % Ctrl
- % Ctrl @ 10 μM [5]: 88 % Ctrl
- % Ctrl @ 10 μM [6]: 78 % Ctrl
- % Ctrl @ 10 μM [7]: 100 % Ctrl
- % Ctrl @ 10 μM [8]: 98 % Ctrl
- % Ctrl @ 10 μM [9]: 74 % Ctrl
- % Ctrl @ 10 μM [10]: 77 % Ctrl
- % Ctrl @ 10 μM [11]: 99 % Ctrl
- % Ctrl @ 10 μM [12]: 87 % Ctrl
- % Ctrl @ 10 μM [13]: 100 % Ctrl
- % Ctrl @ 10 μM [14]: 100 % Ctrl
- % Ctrl @ 10 μM [15]: 100 % Ctrl
- % Ctrl @ 10 μM [16]: 58 % Ctrl
- % Ctrl @ 10 μM [17]: 100 % Ctrl
- % Ctrl @ 10 μM [18]: 100 % Ctrl
- % Ctrl @ 10 μM [19]: 93 % Ctrl
- % Ctrl @ 10 μM [20]: 100 % Ctrl
- % Ctrl @ 10 μM [21]: 100 % Ctrl
- % Ctrl @ 10 μM [22]: 90 % Ctrl
- % Ctrl @ 10 μM [23]: 83 % Ctrl
- % Ctrl @ 10 μM [24]: 66 % Ctrl
- % Ctrl @ 10 μM [25]: 96 % Ctrl
- % Ctrl @ 10 μM [26]: 100 % Ctrl
- % Ctrl @ 10 μM [27]: 100 % Ctrl
- % Ctrl @ 10 μM [28]: 100 % Ctrl
- % Ctrl @ 10 μM [29]: 92 % Ctrl
- % Ctrl @ 10 μM [30]: 93 % Ctrl
- % Ctrl @ 10 μM [31]: 98 % Ctrl
- % Ctrl @ 10 μM ([32]; FLT3-autoinhibited): 100 % Ctrl
- % Ctrl @ 10 μM ([32]; FLT3): 80 % Ctrl
